Tests used:
Monoglyceride lipase = target: T1, Monoglyceride lipase (Homo sapiens, UniProt Q99685); assay: Inhibition of human recombinant MAGL pre-incubated for 5 mins before MAGL substrate addition and further incubated for 10 mins
T1 sequence (Q99685 whole entry): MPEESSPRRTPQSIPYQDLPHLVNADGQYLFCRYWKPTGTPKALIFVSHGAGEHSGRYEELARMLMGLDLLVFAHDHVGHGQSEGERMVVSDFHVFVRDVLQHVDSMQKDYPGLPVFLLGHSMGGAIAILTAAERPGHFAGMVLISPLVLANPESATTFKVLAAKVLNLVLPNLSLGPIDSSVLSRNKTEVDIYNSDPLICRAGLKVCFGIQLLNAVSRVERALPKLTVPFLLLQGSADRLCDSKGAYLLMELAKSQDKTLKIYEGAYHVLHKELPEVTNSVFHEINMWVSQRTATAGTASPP

[1] = target: T2, Fatty-acid amide hydrolase 1 (Rattus norvegicus, UniProt P97612); assay: Inhibition of rat FAAH
T2 sequence (P97612 whole entry): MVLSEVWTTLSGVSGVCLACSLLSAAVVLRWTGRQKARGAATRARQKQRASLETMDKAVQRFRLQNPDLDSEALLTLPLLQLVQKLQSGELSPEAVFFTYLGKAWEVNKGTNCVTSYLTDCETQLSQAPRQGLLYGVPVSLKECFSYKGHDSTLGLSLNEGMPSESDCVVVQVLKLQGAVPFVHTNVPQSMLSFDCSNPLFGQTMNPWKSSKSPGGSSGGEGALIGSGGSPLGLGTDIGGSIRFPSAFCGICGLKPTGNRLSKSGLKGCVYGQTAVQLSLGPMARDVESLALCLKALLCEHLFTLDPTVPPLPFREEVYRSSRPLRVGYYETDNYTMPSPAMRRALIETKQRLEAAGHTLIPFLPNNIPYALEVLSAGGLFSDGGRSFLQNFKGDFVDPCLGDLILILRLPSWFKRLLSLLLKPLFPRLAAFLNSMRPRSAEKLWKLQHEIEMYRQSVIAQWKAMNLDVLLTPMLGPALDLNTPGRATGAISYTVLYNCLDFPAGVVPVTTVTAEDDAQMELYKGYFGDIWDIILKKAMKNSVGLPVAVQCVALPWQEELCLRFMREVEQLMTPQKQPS

Mus musculus [2] = assay: Antidepressant activity in ICR mouse model of reserpine-induced depression assessed as immobility time at 5 mg/kg, ig by forced swim test (reference value: 136.84 +/- 46.69 secs); format: functional
Mus musculus [3] = assay: Antidepressant activity in ICR mouse model of reserpine-induced depression assessed as immobility time at 5 mg/kg, ig by tail suspension test (reference value: 132.38 +/- 44.51 secs); format: functional

| SMILES | IC50 (Monoglyceride lipase) | other results |
| --- | --- | --- |
| CC(C)(C)c1ccc(CN2CCN(C(=S)Sc3ccc([N+](=O)[O-])cc3[N+](=O)[O-])CC2)cc1 |  | IC50 [1]: 1.74 µM |
| CNCCC(Oc1ccc(C(F)(F)F)cc1)c1ccccc1.Cl (stereo unspecified) [FLUOXETINE HYDROCHLORIDE] |  | Time (Mus musculus [2]): 92.64 s; Time (Mus musculus [3]): 92.19 s |
| O=C(Nc1ccccc1)C1CCN(C(c2ccc(F)cc2)c2ccc(F)cc2)CC1 | > 100 µM |  |
| Cc1cc(C)cc(NC(=O)C2CCN(C(c3ccc(F)cc3)c3ccc(F)cc3)CC2)c1 | > 100 µM |  |
| COc1cccc(NC(=O)C2CCN(C(c3ccccc3)c3ccccc3)CC2)c1 | > 100 µM |  |

Now from value to compound, other results behind:

| IC50 (Monoglyceride lipase) | SMILES | other results |
| --- | --- | --- |
| > 100 µM | Cc1cc(C)cc(NC(=O)C2CCN(C(c3ccccc3)c3ccccc3)CC2)c1 |  |
| > 100 µM | O=C(Nc1ccccc1)C1CCN(C(c2ccccc2)c2ccccc2)CC1 |  |
| > 100 µM | COc1cccc(C(=O)N2CCC(C(=O)Nc3cccc(O)c3)CC2)c1 |  |
| > 100 µM | O=C(Nc1cccc(Cl)c1)C1CCN(C(=O)c2ccc(Cl)cc2)CC1 |  |
| > 100 µM | O=C(Nc1cccc(Cl)c1)C1CCN(C(=O)c2ccccc2O)CC1 |  |

Source: ChEMBL document CHEMBL4613273, “Discovery of Aryl Formyl Piperidine Derivatives as Potent, Reversible, and Selective Monoacylglycerol Lipase Inhibitors” (J Med Chem, 2020)
